Laboratory results reported in patent US20160017326A1, “MICRORNAS AS FUNCTIONAL MEDIATORS AND BIOMARKERS OF BONE METASTASIS” (THE TRUSTEES OF PRINCETON UNIVERSITY, priority 2013, published 2016).

Tests used:
[1] = test system: SCP28 breast cancer cells; assay: Experimental bone metastasis: intracardiac SCP28 cells in nude mice, BLI, X-ray, histology; type: in vivo, mouse; conditions: for osteolytic bone lesions (X-ray): hindlimbs, pre-miRNA treated; for hind-limb tumor burden / metastatic progression by BLI: pre-miRNA 10 μg/mouse i.v. before and once per week after SCP28 inoculation; for osteolytic bone metastasis: summary statement; for TRAP+ osteoclast number: histology, tumor-bone interface
Description: (§1) Hindlimb bones were excised from mice at the end point of each experiment, immediately following X-ray and BLI. Hind limb bones were fixed in 10% neutral-buffered formalin, washed and decalcified in a solution of 10% EDTA for 2 weeks. One limb from each mouse was stored in 70% ethanol for μCT analysis and Von Kossa staining, while the other limb was embedded in paraffin for hematoxylin and eosin (H&E), tartrate-resistant acid phosphatase (TRAP), or immunohistochemical staining. Non-decalcified sections were embedded in resin using the Osteo-bed Bone Embedding Kit (Sigma Aldrich, EM0200) before sectioning, followed by Von Kossa staining. Briefly, sections were rehydrated to H2O, followed by submersion in 1% silver nitrate and exposure to UV light for 5 minutes. Sections were then incubated in 2.5% Sodium Thiosulphate, followed by counterstaining with Nuclear Fast Red and dehydration through Xylene. Histomorphometric analysis was performed on H&E stained bone metastasis sections using the Zeiss Axiovert 200 microscope and the AxioVision software version 4.6.3 SP1. For quantitative analysis of lesion area, a 5× objective was used to focus on the tumor region of interest and images were acquired using an AxioCamICc3 camera set to an exposure of 50 ms. Lesions that were larger than the field of view were quantified by acquiring multiple images to encompass the entire lesion and combined in Adobe Photoshop CS5. Lesion area was quantified by outlining the region(s) of interest and quantifying lesion area. Osteoclast number was assessed as multinucleated TRAP^+ cells along the tumor-bone interface and reported as number/mm of interface as previously reported (Sethi et al., 2011). Immunohistochemical analysis was performed with heat-induced antigen retrieval and an osteocalcin antibody (ABcam, AB93876). A biotinylated secondary antibody was used with Vectastain ABC Kit (Vector Laboratories) and DAB detection kit (Zymed) to reveal the positively stained cells; nuclei were counterstained with hematoxylin
(§2) Anesthetized mice were placed on singlewrapped films (X-OMAT AR, Eastman Kodak) and exposed to X-ray radiography at 35 kV for 15 s using a MX-20 Faxitron instrument. Films were developed using a Konica SRX-101A processor. Changes in bone remodeling and osteolytic lesions (radiolucent lesions) in the hindlimbs of mice were identified and quantified using the ImageJ software (National Institutes of Health)
All procedures involving mice and experimental protocols were approved by Institutional Animal Care and Use Committee (IACUC) of Princeton University. For bone metastasis studies, 1×10^5 tumor cells were injected into the left cardiac ventricle of anesthetized female athymic Ncr-nu/nu. MiRNA precursors (10 μg/mouse in 100 μl PBS, Applied Biosystems) and Zometa (100 μg/kg) were injected intravenously. Development of metastases was monitored by measuring photon flux of BLI signals in the hindlimbs of mice after retro-orbital injection of 75 mg/kg D-Luciferin and image acquisition using the Xenogen IVIS 200 Imaging System. Data were normalized to the signal on day 0. X-ray examination was performed as previously described (Kang et al., 2003).
After further validating the ability of highly metastatic SCP28 to induce osteoclastogenesis in MOCP5 cells, SCP28 were used for analyzing the effect of miRNAs on bone metastasis development in mice. FIG. 7E illustrates representative images of MOCP-5 cells treated with MDA-MB-231 and SCP28 CMs. Scale bar represents 200 μm. FIGS. 7F and 7G illustrate quantification of osteoclast number and nuclei per osteoclast after MOCP-5 cells were treated with indicated CM as in FIG. 7C. Results were statistically significant with p<0.001 (***) as assessed by Student's t test. Nude mice were systemically treated with control or experimental pre-miRNAs immediately before, and once per week subsequently, after inoculation with SCP28 cells via intracardiac injection. […]

[2] = test system: Balb/c mice; assay: Systemic pre-miRNA treatment of healthy mice: X-ray, microCT, histology; type: in vivo, mouse; conditions: for osteoclast activity in vivo: intravenous injection; for number of osteoclasts relative to bone surface area (TRAP): 10 μg pre-miRNA i.v. weekly for four weeks
Description: as §1, §2
Femurs and tibias were scanned using the INVEON PET/CT (Siemens Healthcare) at the Preclinical Imaging Shared Resource of Cancer Institute of New Jersey. The X-Ray tube settings were 80 kV and 500 μA and images were acquired at the highest resolution without CCD binning, resulting in a voxel size of 9.44 μm. A 0.66° rotation step through a 195° angular range with 6500 msec exposure was used. The images were reconstructed with Beam Hardening Correction and Hounsfield calibration before being analyzed using the INVEON Research Workplace software (Siemens Healthcare). After processing with a 3D Gaussian filter to reduce noise ROI's were manually segmented that corresponded to the cortical and trabecular bone regions. Cortical regions of interest comprised of 470 μm thick regions (50 slices, 9.4 μm thickness for each slice) located 3 mm distal to the growth plate, while 300 μm thick trabecular sections began 0.27 mm distal to the growth plate.
To evaluate the capacity for these miRNAs to inhibit mouse osteoclast function in vivo, 10 μg of pre-miRNA were injected into the lateral tail-vein of Balb/c mice weekly for four weeks. […] FIG. 6A illustrates representative X-ray, μCT and histological images for TRAP, H&E, Von Kossa, or osteocalcin staining of bones from mice treated with miR-33a, miR-133a, miR-141, miR-190 and miR-219 compared to non-treated control. Regions of interest for trabecular and cortical bone scan and analysis are marked by dashed lines. Scale bar indicates 200 μm, n=6. […]

[3] = test system: RAW264.7 cells; assay: In vitro bone resorption assay on bovine bone slices; type: cell-based, murine; conditions: miRNA transfection, 50 ng/ml RANKL, relative to control cells
Experimental: 5×10^4 pre-osteoclast cells were seeded onto 1 mm thick slices of bovine bone cut using a diamond saw and sterilized by immersion in 70% ethanol. Cells were cultured for 10 days as indicated in 6-well plates, transferred to fresh plates and washed to remove osteoclasts. Bone slices were stained in a solution of 1% toludine blue in 0.5% sodium tetraborate, destained in PBS plus 1% Triton X-100, and imaged by light microscopy.
In vitro bone resorption assay was then used to measure the effect of ectopic miRNA expression on osteoclast activity. […] Referring to this figures, scale bar represents 200 μm. Results were statistically significant with p<0.01 (**) and p<0.001 (***). […] Since these miRNAs may inhibit osteoclast differentiation or function by targeting different mRNAs, the repression of osteoclast differentiation was further examined using combinations of inhibitory miRNAs. Given that transient transfection with 10 pM of miRNA precursors was sufficient to inhibit up to approximately 90% of osteoclast differentiation, RAW264.7 cells were treated with a combination of miRNAs at a reduced concentration of 1 pM total precursors.

Substance | osteolytic bone lesions (X-ray) [1] | hind-limb tumor burden / metastatic progression by BLI [1] | osteolytic bone metastasis [1] | osteoclast activity in vivo [2] | bone resorption (osteoclast activity) [3] | TRAP+ osteoclast number [1] | number of osteoclasts relative to bone surface area (TRAP) [2]
miR-133a: miRNA, SEQ ID NO: 61; delivered as pre-miRNA precursor; targets Mitf and Mmp14 (UUUGGUCCCCUUCAACCAGCUA; delivered as pre-miRNA precursor, chemistry not given here; listed as Homo sapiens) | significant bone degradation | no effect | no measurable effect | significantly reduced | dramatically limited osteoclast activity |  | 
miR-141: miRNA, SEQ ID NO: 69; delivered as pre-miRNA precursor; targets Mitf and Calcr (UAACACUGUCUGGUAACGAUGU; delivered as pre-miRNA precursor, chemistry not given here; listed as Homo sapiens) | decreased bone lesions | significant decrease in metastatic burden | capable of inhibiting | significantly reduced | dramatically limited osteoclast activity | significant decrease | significant decrease
miR-190: miRNA, SEQ ID NO: 64; delivered as pre-miRNA precursor; targets Calcr (UGAUAUGUUUGAUAUAUUAGGU; delivered as pre-miRNA precursor, chemistry not given here; listed as Homo sapiens) | significant bone degradation | no effect | no measurable effect | significantly reduced | dramatically limited osteoclast activity | significant decrease | 
miR-219: miRNA, SEQ ID NO: 66; delivered as pre-miRNA precursor; targets Mitf and Traf6 (UGAUUGUCCAAACGCAAUUCU; delivered as pre-miRNA precursor, chemistry not given here; listed as Homo sapiens) | decreased bone lesions | significant decrease in metastatic burden | capable of inhibiting | significantly reduced | dramatically limited osteoclast activity | significant decrease | significant decrease
